The values that follow come from publication PMC5155426, “Organic Redox Species in Aqueous Flow Batteries: Redox Potentials, Chemical Stability and Solubility” (Scientific Reports, 2016).

Series [1] is described as follows: CV of GC electrode ground with pure anthraquinone (Pourbaix diagram). It counts as physicochemical. The settings on record: for E0' of unsubstituted AQ: surface-attached AQ on GC electrode. The source says: Organic R edox Species in Aqueous F low Batteries: R edox Potentials, C hem ical Stab ilit y and So lub ilit y S2: Pure Anthraquinone Pourbaix diagram
The redox potential of pure 9,10 -anthraquinone (Sigma-Aldrich, 97%) was estimated in aqueous solutions at different pH values by measuring the CV response of a GC electrode that had been freshly grinded with anthraquinone mixed with acetone to yield a surface covered/attached species. The CVs are shown in Figure 2, and it is noticed that as the pH increases, there is a significant side- reaction, and it was only possible to obtain reliable data up to pH 10. Thus, the redox potential at pH 13 is only extrapolated. The solutions were freshly prepared and were: 1 M H2SO4 f or pH 0, 0.2 M HCl/KCl buffer for pH 2, Reagecon Technical buffers for pH 4 and 7, 0 . 2 M acetate buffer f or pH 5 and Radiometer Analytical buffer (carbonate) for pH 10.
Figure 2 CVs for the anthraquinone-grinded GC electrode at different […]
Figure 3: The observed standard potential as a function of pH (right).
The line represents linear regression data. Colored arrows indicates the peaks interpreted as the pure AQ peaks used for the Pourbaix […]

Series [2] can be described thus: Cyclic voltammetry: formal redox potential, peak current ratio, electrochemical reversibility. It counts as physicochemical. The method, then: The investigated compounds were used as-purchased and without any purification. […] For each series of CVs, a freshly polished electrode was used. The CVs for soluble compounds in 1 mM concentration were recorded in a glass beaker with a customized lid in nitrogen purged solutions of three different pHs, namely pH 0 (1 M H2SO4), pH 7 (0.5 M phosphate buffer) and pH 13 (1 M NaOH). The pH of the NaOH solution is taken as 13 to account for carbonization of the solution with exposure to air. A background CV was recorded before each CV experiment to exclude background contaminations. The CVs of insoluble compounds in 1 M H2SO4, or 0.5 M phosphate buffer were recorded as follows: 6 mL of the supporting electrolyte was mixed with approximately 4 mL of acetone, and then a small amount of the quinone was added so that its concentration was around 1 mM.
Each CV was analyzed in terms of peak potentials and peak currents. Peak currents were determined by subtracting a polynomial fit of the background from the recorded current as exemplified in Supplementary, S1. A plot of the absolute values of the peak currents to the square root of the scan rate was constructed and, when reasonable, a linear fit included to evaluate the electrochemical (Nernstian) reversibility of the electrochemical reaction. The peak current Ip for reversible reactions are given by equation (1).
Where F is the Faraday constant, R the gas constant, T the temperature, n the number of electron transferred, A the area of the electrode, DOthe diffusion coefficient and CO^*the bulk concentration of the analyte and v the scan rate. The peak current ratio is expected to be close to one for reversible species. The formal redox potential (E^0’), which is the adjusted form of the standard redox potential, where effects of the medium is taken into account, is reported here as the midpoint potential between the two peak potentials in the CV[24]. All half-cell potentials in this work refer to the normal hydrogen electrode (VNHE).

Series [3] is described as follows: pKa of the central (hydro)quinone groups estimated from the Pourbaix diagram. It counts as physicochemical. To be noted: aqueous media, estimated from slope change in Pourbaix diagram, Fig. 5. The method, then: Quinones generally undergo a reversible two-electron reduction/oxidation. The redox potential is strongly pH dependent, as the reaction may or may not involve two protons as illustrated in the scheme-of-squares mechanistic pathway in Fig. 3 [26]. At pH < pKa1, the reaction includes two protons and thus E^0’ decreases with 59 mV per pH unit (at 25 °C)[24]. At pKa1 < pH < pKa2 and pKa2 < pH only one and no protons are involved, whereby E^0’ decreases with 30 and 0 mV per pH unit, respectively. Generally, the reactions that include protons are slower and result in a lower electrochemical rate constant (k0) and may ultimately lead to higher charge-transfer resistance in the RFB. Thus, the choice of pH in the RFB environment strongly influences quinone electrochemical performance.
Similarly to sulfonated AQs, the positions of the hydroxyl groups affect E^0’, but in acidic only to a small extent. […] The three former all have the hydroxyl groups on positions close to the quinone groups. The difference in E^0’ for these hydroxylated AQs and others may be found in the pKa values of the central (hydro)quinone groups. Those are not trivial to measure given the insolubility at lower pH values for hydroxylated AQs, but they can be estimated from the Pourbaix diagram in Fig. 5 [24][26]. For instance, in the Pourbaix diagram of AQDS(2,7), E^0’ follows the expected −59 mv/pH unit from pH 0 to pH 7 (pKa1). Then the first (hydro)quinone group deprotonates, and the slope changes to 30 mV/pH unit until pH 10 (pKa2) and E^0’ becomes pH-independent. […] Thus, if one can predict or measure reasonable values for these pKa values, it should be possible to predict which ones will have a more negative or positive E^0’ at higher pH.

A short description of series [4]: Aqueous solubility estimation (OECD test #105) in 1 M supporting electrolytes. The protocol:
After each addition the test tube was ultrasonicated and/or shaken vigorously using a Vortex Generator for at least 10 minutes at room temperature. Then the tube was inspected visually for undissolved sample and the addition of supporting electrolyte solution continued until the sample seemed just dissolved. The volumes just before and after full dissolution are used for calculating the solubility interval (Supplementary, S4 and S5) and the solubility is estimated as the average between the two.

The conditions of series [5]: cited from earlier work; for chemical stability (in water): ref 29 (tetracyano benzoquinone), 30 (dicyano dichloro benzoquinone), 31 (tetracarboxyl para benzoquinone), 32 (duroquinone).
Series [6] can be described thus: Visual inspection of dissolved samples on standing (thixotropy, phase separation). The series is classed as physicochemical. The method, then: Dissolved samples were left to stand for 12 hours and visually inspected for thixotropy using a vortex generator. For very insoluble compounds the amount of sample was decreased to 0.01 g and the dissolution time increased up to 24 h.
In practical RFBs thixotropy is not wanted, as the redox solutions can be kept still for long times. […] Thixotropy of AQ dyes in aqueous dispersions has been described earlier, as well as some methods to overcome the problem such as addition of polyvinylpyrrolidone to the solution[43].

A short description of series [7]: TEMPOL stability in aqueous buffer. It counts as physicochemical. The settings on record: after 30 days, uncharged state. The protocol:
As an alternative to quinones, the nitroxide radical TEMPOL, was tested. […] This behaviour is similar to previous studies. […] A few other nitrogen-containing redox active species (Fig. 2 and Supplementary, S7) were included.

Setting [8] is: read-out: pKa1 of the (hydro)quinone groups.
Setting [9] is: read-out: pKa2 of the (hydro)quinone groups.
The mark [10] stands for this setting: pH 0 (1 M H2SO4), midpoint of CV peak potentials, about 1 mM, acetone added for insoluble compounds.
Where [11] appears, read: 1 M KCl supporting electrolyte prepared from MilliQ water, saline or isotonic, thermodynamic from solid, Solubility, 1 M KCl, room temperature.

Where “and” joins values, the source holds several entries; their conditions need not be identical. Equal values may be shown once. Entries after “also recorded” stand apart in the source; their conditions may differ. Read-outs that look alike come from different tables or passages of the source. Where only a bound is given, the exact number is not on record here.

By solubility is commonly meant how much of the substance goes into solution per volume.

Turning to `O=C1c2ccccc2C(=O)c2ccccc21` [AQ, 9,10-anthraquinone], in series [1] (pH 0), the “E0' lower than that of HQ(1,4)” value is listed as “about 300 mV” and the “E0' of unsubstituted AQ” value worked out at 0.4 VNHE. Moreover, the “E0' of unsubstituted AQ” value in series [1] (pH 7) stood at 0 VNHE. Moreover, the “E0' of unsubstituted AQ, estimated by extrapolation in Fig. 5” value in series [1] (pH 13, reliable data only up to pH 10) is recorded as approximately −0.4 VNHE.
As to `O=C1c2cccc(O)c2C(=O)c2c(O)cccc21` [AQDH(1,8), 1,8-dihydroxy-9,10-anthraquinone], the Electrochemical reversibility entry in series [2] (pH 13) is reported as “Reversible”. Moreover, the values for the pKa in series [3] (setting [8]) and in series [3] (setting [9]) were approximately 4 and more than 13, respectively.
Take `O=C1c2ccc(O)cc2C(=O)c2ccc(O)cc21` [AQDH(2,6), 2,6-dihydroxy-9,10-anthraquinone]: the Peak current ratio in series [2] (pH 0) is on record as 0.83(4); in series [2] (pH 7), 0.9(1); in series [2] (pH 13), 1.1(1). Besides, the “formal redox potential E0'” value in series [2] (setting [10]) was 0.039(4) VNHE and 0.04 VNHE. The Electrochemical reversibility result in series [2] (pH 13) is “Reversible”. Also, the solubility in series [4] (1 M H2SO4 supporting electrolyte prepared from MilliQ water, aqueous buffer, thermodynamic from solid, Solubility, 1 M H2SO4, room temperature, interval just after / before full dissolution) is less than 10 mM; in series [4] (setting [11]), less than 10 mM. Besides, the pKa in series [3] (setting [8]) and in series [3] (setting [9]) was more than 13 each time.
As for `O=C1c2ccc(S(=O)(=O)O)cc2C(=O)c2ccc(S(=O)(=O)O)cc21` [AQDS(2,6), AQ-2,6-disulfonate], in series [5] (pH 0), the “E0'” value is reported as approximately 0.166 VNHE.
Consider `O=C1c2ccc(S(=O)(=O)O)cc2C(=O)c2cc(S(=O)(=O)O)ccc21` [AQDS(2,7), 9,10-anthraquinone-2,7-disulfonate disodium], for which the Electrochemical reversibility entry in series [2] (pH 0) is “Quasireversible”; in series [2] (pH 7), “Quasireversible”; in series [2] (pH 13), “Reversible”. Also, the results for the Peak current ratio in series [2] (pH 0), in series [2] (pH 7) and in series [2] (pH 13) were 0.7(1), 0.56(3) and 0.96(7), respectively. In addition, the “formal redox potential E0'” value in series [2] (setting [10]) is 0.165 VNHE; in series [2] (pH 0 (1 M H2SO4); midpoint of CV peak potentials; about 1 mM; acetone added for insoluble compounds; 7)) it was 0.165(5) VNHE. In addition, the pKa in series [3] (setting [8]) is 7; in series [3] (setting [9]), 10. The thixotropy entry in series [6] (all supporting electrolytes, disodium form as received) is on record as “thixotropy was observed”. The “Comment: behaviour of the solution upon standing” value in series [6] (electrolyte not stated) is recorded as “T hixotropic behaviour”.
With `O=C1c2ccccc2C(=O)c2c1cc(S(=O)(=O)O)c(O)c2O` [AQS(2)DH, 3,4-dihydroxy-9,10-anthraquinone-2-sulfonate sodium], the results for the Peak current ratio in series [2] (pH 0), in series [2] (pH 7) and in series [2] (pH 13) were 0.9(1), 0.85(6) and 1.1(1), respectively. Besides, the Electrochemical reversibility entry in series [2] (pH not specified) is recorded as “Quasie versib le”. For the same compound, the solubility result in series [4] (1 M H2SO4, room temperature, interval just after / before full dissolution) is “barely soluble”; in series [4] (setting [11]), less than 10 mM. In addition, in series [6] (in KOH (1 M)), the “Comment: behaviour of the solution upon standing” value was “T hixotropic behavior; also recorded: thixotropy was observed”.
For the compound `CC1(C)CC(O)CC(C)(C)N1[O]` [TEMPOL, 4-hydroxy-2,2,6,6-tetramethylpiperidine-1-oxyl], the Electrochemical reversibility entry in series [2] (pH 7) is given as “reversible”. For the same compound, in series [7], the “degradation in aqueous buffer” value is given as “no degradation”.
For the compound `N#CC1=C(C#N)C(=O)C(Cl)=C(Cl)C1=O` [dicyano dichloro benzoquinone], in series [5], the “E0'” value was 0.9 VNHE and the “chemical stability (in water)” value is recorded as “readily reacts with water”.
As for `CC1=C(C)C(=O)C(C)=C(C)C1=O` [duroquinone], the potential in series [5] (aqueous (acidic and neutral) solutions) is recorded as 0.5 VNHE. In addition, the “chemical stability (in water)” value in series [5] is “electrochemically reversible and chemically stable”.
`O=C(O)C1=C(C(=O)O)C(=O)C(C(=O)O)=C(C(=O)O)C1=O` [tetracarboxyl para benzoquinone]: in series [5], the calculated standard potential is on record as more than 1 VNHE and the “chemical stability (in water)” value is given as “decomposes after synthesis”.
As to `N#CC1=C(C#N)C(=O)C(C#N)=C(C#N)C1=O` [tetracyano benzoquinone], in series [5], the “E0' estimated higher than that of dicyano dichloro benzoquinone” value is 0.3 V and the “chemical stability (in water)” value is “Chemical instability in water”.
hexahydroxy anthraquinone: the “experimentally obtained E0'” value in series [5] (pH 13) is “about −0.7 VNHE”.
